Article PMC10295546, “Synthesis, Cytotoxicity and Molecular Docking of New Hybrid Compounds by Combination of Curcumin with Oleanolic Acid” (Biomedicines, 2023)

How the values were obtained:
Assay type in all cases: cell-based, human
HeLaWT cells [1] = assay: MTT cell viability assay, HeLaWT
Protocol: (§1) The assay was performed as previously described.

HT-29 cells [2] = assay: MTT cell viability assay, HT-29; conditions: for IC50: MTT
Protocol: as §1

MCF7 cells [3] = assay: MTT cell viability assay, MCF7; conditions: for IC50: MTT
Protocol: as §1

MCF-12A cells = assay: MTT cell viability assay, non-tumorigenic MCF-12A
Protocol: as §1

HeLaWT cells [4] = assay: Cell cycle analysis (propidium iodide flow cytometry), HeLaWT
Protocol: (§2) To analyze the influence of the chosen compounds on the cell cycle, a flow cytometry analysis using propidium iodide was performed as previously described. The HT-29, MCF7 and HeLaWT cells (3 × 10^5 cells) were incubated overnight to reach sedimentation and then were treated with 0.5 and 1 × IC50 of KS1, KS2, KS5, KS6, KS7 and KS8, or Doxorubicin (positive control). Cell cycle analysis was performed after incubation for 24 h. Then, cells were harvested, washed twice with phosphate-buffered saline (PBS), and incubated with a solution of 1% saponin, 50 µg/mL propidium iodide and 10 mg/mL of RNase A (Sigma-Aldrich, Schnelldorf, Germany) in PBS for 1 h at 37 °C. DNA content was analyzed by flow cytometry at the […] wavelength of 488 nm using FACScan (Becton–Dickinson, Franklin Lakes, NJ, USA). The relative proportions of cells in the G1/G0, S and G2/M phases of the cell cycle were determined from the obtained data. Three separate experiments in triplicates were performed for each cell line.

HT-29 cells [5] = assay: Cell cycle analysis (propidium iodide flow cytometry), HT-29
Protocol: as §2

MCF7 cells [6] = assay: Cell cycle analysis (propidium iodide flow cytometry), MCF7; conditions: MCF7, both applied concentrations (0.5 × IC50 and 1 × IC50), 24 h
Protocol: as §2

HeLaWT cells [7] = assay: TUNEL assay, HeLaWT
Protocol: (§3) To determine the percentage of apoptotic cells, the TUNEL assay was performed as described elsewhere. TUNEL staining for the detection and quantification of apoptosis at the single-cell level was performed using an in situ cell death detection kit (Roche, Mannheim, Germany) according to the manufacturer’s protocol. Briefly, HT-29, HeLaWT and MCF7 cells (5 × 10^5/well) were seeded into 6-well plates and cultured overnight before exposure to different concentrations of tested compounds for 24 h. For TUNEL labeling, cells were harvested, fixed, permeabilized and labeled with the TUNEL reaction mixture (enzyme and label solutions) for 1 h at 37 °C in the dark. Negative controls were created by omitting the terminal deoxynucleotidyl enzyme and adding the same volume of the label solution. The cells were analyzed using a FACScan flow cytometer (Becton–Dickinson, Franklin Lakes, NJ, USA).

HT-29 cells [8] = assay: TUNEL assay, HT-29; conditions: HT-29, 1 × IC50, 24 h, non-statistically significant
Protocol: as §3

[9] = test system: HeLaWT, HT-29, MCF7 and MCF-12A cells; assay: MTT cell viability assay, statement for all studied cells; conditions: for IC50: Homo sapiens, all studied cells, applied concentration range, time not specified
Protocol: as §1

[10] = Homo sapiens, MCF-12A, 24 h, MTT
[11] = Homo sapiens, MCF-12A, 48 h, MTT
[12] = Homo sapiens, MCF-12A, 72 h, MTT
[13] = Homo sapiens, non-cancerous MCF-12A cells, applied concentration range, time not specified

| SMILES | IC50 (HeLaWT cells [1]; Homo sapiens, 24 h) [µM] | IC50 (HeLaWT cells [1]; Homo sapiens, 48 h) [µM] | IC50 (HeLaWT cells [1]; Homo sapiens, 72 h) [µM] | IC50 (HT-29 cells [2]; Homo sapiens, HT-29, 24 h) [µM] | IC50 (HT-29 cells [2]; Homo sapiens, HT-29, 48 h) [µM] | IC50 (HT-29 cells [2]; Homo sapiens, HT-29, 72 h) [µM] | IC50 (MCF7 cells [3]; Homo sapiens, MCF7, 24 h) [µM] | IC50 (MCF7 cells [3]; Homo sapiens, MCF7, 48 h) [µM] | IC50 (MCF7 cells [3]; Homo sapiens, MCF7, 72 h) [µM] | IC50 (MCF-12A cells; [10]) [µM] | IC50 (MCF-12A cells; [11]) [µM] | IC50 (MCF-12A cells; [12]) [µM] | IC50 (MCF-12A cells; [13]) [µM] | IC50 [9] [µM] | also measured |
| --- | --- | --- | --- | --- | --- | --- | --- | --- | --- | --- | --- | --- | --- | --- | --- |
| CC1(C)CCC2(C(=O)O)CCC3(C)C(=CCC4C5(C)CCC(OC(=O)CCC(=O)O)C(C)(C)C5CCC43C)C2C1 (stereo not drawn) [KS1, 4-{[(3 β )-28-hydroksy-28-oxoolean-12-en-3-yl]oxy}-4-oxobutanoic acid] |  |  |  |  |  |  |  |  |  |  |  |  |  |  | IC50 (HeLaWT cells [1]; 24 h): > 100 µM; IC50 (HeLaWT cells [1]; 48 h): > 100 µM; IC50 (HeLaWT cells [1]; 72 h): > 100 µM; cytotoxic activity (in words) (HeLaWT cells [1]; summary of Table 1): inactive; IC50 (HT-29 cells [2]; HT-29, 24 h): > 100 µM; IC50 (HT-29 cells [2]; HT-29, 48 h): > 100 µM; IC50 (HT-29 cells [2]; HT-29, 72 h): > 100 µM; cytotoxic activity (in words) (HT-29 cells [2]; HT-29, MTT, summary of Table 1): inactive; IC50 (MCF7 cells [3]; MCF7, 24 h): > 100 µM; IC50 (MCF7 cells [3]; MCF7, 48 h): 34.4 ± 2.2 µM; IC50 (MCF7 cells [3]; MCF7, 72 h): 22.5 ± 0.9 µM; cytotoxic activity (in words) (MCF7 cells [3]; MCF7, MTT, summary of Table 1): quite active; IC50 (MCF-12A cells; MCF-12A, 24 h, MTT): > 100 µM; IC50 (MCF-12A cells; MCF-12A, 48 h, MTT): 47.7 ± 2.1 µM; IC50 (MCF-12A cells; MCF-12A, 72 h, MTT): 42.1 ± 1.9 µM |
| COc1cc(/C=C/C(=O)CC(=O)/C=C/c2ccc(O)c(OC)c2)ccc1O [KS2, curcumin] | 57.2 ± 2.2 | 28.7 ± 1.1 | 16.2 ± 0.65 | 25.2 ± 1.3 | 13.9 ± 0.7 | 11.1 ± 0.6 | 15.6 ± 0.8 | 14.6 ± 0.6 | 7.5 ± 0.4 | 75.6 ± 2.5 | 46.4 ± 2 | 42 ± 1.6 |  |  | effect on cell cycle phases (HeLaWT cells [4]; 0.5 × IC50, 24 h): a decrease in the G0/G1 phase, and an increase in the G2/M phase; effect on cell cycle phases (HeLaWT cells [4]; 1 × IC50, 24 h): a decrease in the number of cells in the G0/G1 phase; increase of apoptotic cells (cell cycle analysis) (HeLaWT cells [4]; 1 × IC50, 24 h): up to 10%; increase of apoptotic cells (cell cycle analysis) (HT-29 cells [5]; HT-29, 24 h, in comparison to control untreated cells): 7%; effect on cell cycle phases (HT-29 cells [5]; HT-29, both applied concentrations (0.5 × IC50 and 1 × IC50), 24 h): a decrease in the G0/G1 phase, and an increase in the G2/M phase; effect on cell cycle phases (MCF7 cells [6]): a decrease in the G0/G1 phase, and an increase in the G2/M phase; number of apoptotic cells (TUNEL) (HeLaWT cells [7]; 0.5 × IC50, 24 h): 30%; number of apoptotic cells (TUNEL) (HeLaWT cells [7]; 1 × IC50, 24 h): 80%; increase of apoptosis (TUNEL) (HT-29 cells [8]): 10% |
| COC(=O)C12CCC(C)(C)CC1C1=CCC3C4(C)CCC(OC(=O)CCC(=O)Oc5ccc(/C=C/C(O)=C/C(=O)/C=C/c6ccc(O)c(OC)c6)cc5OC)C(C)(C)C4CCC3(C)C1(C)CC2 (stereo not shown) [KS3, Curcumin mono-oleanoyl hydrogen succinate methyl ester] | > 100 | > 100 | > 100 | > 100 | > 100 | > 100 | > 100 | > 100 | > 100 | > 100 | > 100 | > 100 | > 100 | > 100 |  |
| COc1cc(/C=C/C(=O)/C=C(O)/C=C/c2ccc(OC(=O)CCC(=O)OC3CCC4(C)C(CCC5(C)C4CC=C4C6CC(C)(C)CCC6(C(=O)O)CCC45C)C3(C)C)c(OC)c2)ccc1O (stereo not shown) [KS4, Curcumin mono-oleanoyl hydrogen succinate] | > 100 | > 100 | > 100 | > 100 | > 100 | > 100 | > 100 | > 100 | > 100 | > 100 | > 100 | > 100 | > 100 | > 100 |  |
| COc1cc(/C=C/c2cc(/C=C/c3ccc(OC(=O)CCC(=O)OC4CCC5(C)C(CCC6(C)C5CC=C5C7CC(C)(C)CCC7(C(=O)O)CCC56C)C4(C)C)c(OC)c3)on2)ccc1O (stereo not shown) [KS5, Curcumin isoxazole mono-oleanoyl hydrogen succinate] | 70.1 ± 3.5 | 51.2 ± 2.5 | 27.3 ± 1.4 | 29 ± 1.4 | 23.2 ± 1.2 | 21.5 ± 1.1 | 80.8 ± 4 | 45.6 ± 2.3 | 37.8 ± 1.9 | 83.2 ± 3.1 | 68.7 ± 2.4 | 49.9 ± 1.6 |  |  |  |
| COc1cc(/C=C/c2cc(/C=C/c3ccc(OC(=O)CCC(=O)OC4CCC5(C)C(CCC6(C)C5CC=C5C7CC(C)(C)CCC7(C(=O)O)CCC56C)C4(C)C)c(OC)c3)[nH]n2)ccc1O (stereo not shown) [KS6, Curcumin pyrazole mono-oleanoyl hydrogen succinate] | 77.1 ± 3.8 | 45 ± 2.3 | 25.9 ± 1.3 | 94.4 ± 4.7 | 51.9 ± 2.6 | 26 ± 1.3 | 69.1 ± 3.4 | 25.9 ± 1.3 | 20.2 ± 1 | > 100 | 54.3 ± 2.7 | 44.6 ± 1.9 |  |  |  |
| COC(=O)C12CCC(C)(C)CC1C1=CCC3C4(C)CCC(OC(=O)CCC(=O)Oc5ccc(/C=C/c6cc(/C=C/c7ccc(O)c(OC)c7)no6)cc5OC)C(C)(C)C4CCC3(C)C1(C)CC2 (stereo not shown) [KS7, Curcumin isoxazole mono-oleanoyl hydrogen succinate methyl ester] | > 100 | > 100 | > 100 | > 100 | > 100 | > 100 | > 100 | > 100 | > 100 | > 100 | > 100 | > 100 | > 100 | > 100 | cytotoxic activity (in words) ([9]; all cell lines, MTT, summary of Table 1): inactive |
| COC(=O)C12CCC(C)(C)CC1C1=CCC3C4(C)CCC(OC(=O)CCC(=O)Oc5ccc(/C=C/c6cc(/C=C/c7ccc(O)c(OC)c7)n[nH]6)cc5OC)C(C)(C)C4CCC3(C)C1(C)CC2 (stereo not shown) [KS8, Curcumin pyrazole mono-oleanoyl hydrogen succinate methyl ester] | 53.4 ± 2.7 | 36.9 ± 1.8 | 25.6 ± 1.2 | 20.6 ± 1 | 17.9 ± 0.9 | 17.3 ± 0.9 | 44.3 ± 2.2 | 33.2 ± 1.7 | 29.9 ± 1.5 | 62.7 ± 3.1 | 43.4 ± 2.2 | 42.3 ± 2.5 |  |  |  |
